The results in this text go back to EPA's ToxValDB 9.5 (doi:10.2903/j.efsa.2009.178r).

Data set [1] concerns Daphnia magna. As to conditions: chronic/long-term; duration: 21 days; mobility.
Data set [2] concerns Apis mellifera. To be noted: acute, mortality.
The test system of data set [3] is Colinus virginianus. As to conditions: acute; oral; diet; mortality.
Data set [4] deals with Rattus norvegicus.
The test system of data set [5] is Procambarus sp. As to conditions: acute; duration: 96 hours; mortality.
For data set [6], the system named is Anas platyrhynchos.
Data set [7] deals with Canidae. As to conditions: chronic; duration: 1 years; oral; Dog Other; histopathology: nonneoplastic.
In data set [8] the test system is Tagia sp. As to conditions: acute; mortality.
The test system of data set [9] is Oncorhynchus mykiss.
Data set [10] relates to Aphidius rhopalosiphi. In words: LR50; higher = less toxic. As to conditions: not reported; mortality.
Data set [11] concerns Typhlodromus pyri. In words: LR50; higher = less toxic. To be noted: not reported; mortality.

The NOAEL is the highest dose or exposure tested at which no adverse effect was seen. Turning to `COC(=O)c1ccccc1CS(=O)(=O)NC(=O)Nc1nc(OC)cc(OC)n1` [Bensulfuron-methyl], the NOEC in data set [1] was 12 mg/L; in data set [6] (reproductive), 83 mg/kg-day; in [9] (chronic/long-term, duration: 90 days, other), 1.5 mg/L. The LD50 is over 100 µg/piece in [2] (dermal); over 51.4 µg/piece in [2] (oral, unspecified); at least 5000 mg/kg in data set [4] (acute, oral, mortality); at least 2510 mg/kg in data set [6] (acute, oral, unspecified, M/F, mortality). For the same compound, the LC50 was over 1680 mg/kg-day in data set [3]; over 71 µg/mL in data set [5]; over 1690 mg/kg-day in data set [6] (short-term, oral, feed, mortality); over 1000 mg/kg in [8]; over 66 µg/mL in data set [9] (acute, duration: 96 hours, mortality). This compound also returned an NOEL in data set [4] (reproduction developmental, reproduction) of 20.9 mg/kg-day. The compound further showed a no-observed-adverse-effect level (NOAEL) in data set [7] of 19.9 mg/kg-day. The LR50 in data set [10] and in data set [11] was over 600 g/ha in each case.
